Data as given in PMC11697083 (Nature Communications, 2025).

Key:
Assay type in all cases: biochemical
KIF18A = biological target: T1, KIF18A (Homo sapiens, UniProt Q8NI77); assay: ADP-Glo ATPase assay at varied ATP
T1 sequence (Q8NI77 1-374): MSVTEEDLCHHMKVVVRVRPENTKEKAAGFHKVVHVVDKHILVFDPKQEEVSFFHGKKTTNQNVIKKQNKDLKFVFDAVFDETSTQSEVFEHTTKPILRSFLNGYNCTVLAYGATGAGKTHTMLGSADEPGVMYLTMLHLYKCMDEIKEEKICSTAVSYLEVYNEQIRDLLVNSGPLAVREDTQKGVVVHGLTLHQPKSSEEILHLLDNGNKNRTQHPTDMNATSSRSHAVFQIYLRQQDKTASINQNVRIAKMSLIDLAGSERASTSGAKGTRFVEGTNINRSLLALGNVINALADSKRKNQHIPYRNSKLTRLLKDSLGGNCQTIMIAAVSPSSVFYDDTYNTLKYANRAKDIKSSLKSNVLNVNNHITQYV

KIF19 = biological target: T2, KIF19 (Homo sapiens, UniProt Q2TAC6); assay: ADP-Glo ATPase assay
T2 sequence (Q2TAC6 1-998): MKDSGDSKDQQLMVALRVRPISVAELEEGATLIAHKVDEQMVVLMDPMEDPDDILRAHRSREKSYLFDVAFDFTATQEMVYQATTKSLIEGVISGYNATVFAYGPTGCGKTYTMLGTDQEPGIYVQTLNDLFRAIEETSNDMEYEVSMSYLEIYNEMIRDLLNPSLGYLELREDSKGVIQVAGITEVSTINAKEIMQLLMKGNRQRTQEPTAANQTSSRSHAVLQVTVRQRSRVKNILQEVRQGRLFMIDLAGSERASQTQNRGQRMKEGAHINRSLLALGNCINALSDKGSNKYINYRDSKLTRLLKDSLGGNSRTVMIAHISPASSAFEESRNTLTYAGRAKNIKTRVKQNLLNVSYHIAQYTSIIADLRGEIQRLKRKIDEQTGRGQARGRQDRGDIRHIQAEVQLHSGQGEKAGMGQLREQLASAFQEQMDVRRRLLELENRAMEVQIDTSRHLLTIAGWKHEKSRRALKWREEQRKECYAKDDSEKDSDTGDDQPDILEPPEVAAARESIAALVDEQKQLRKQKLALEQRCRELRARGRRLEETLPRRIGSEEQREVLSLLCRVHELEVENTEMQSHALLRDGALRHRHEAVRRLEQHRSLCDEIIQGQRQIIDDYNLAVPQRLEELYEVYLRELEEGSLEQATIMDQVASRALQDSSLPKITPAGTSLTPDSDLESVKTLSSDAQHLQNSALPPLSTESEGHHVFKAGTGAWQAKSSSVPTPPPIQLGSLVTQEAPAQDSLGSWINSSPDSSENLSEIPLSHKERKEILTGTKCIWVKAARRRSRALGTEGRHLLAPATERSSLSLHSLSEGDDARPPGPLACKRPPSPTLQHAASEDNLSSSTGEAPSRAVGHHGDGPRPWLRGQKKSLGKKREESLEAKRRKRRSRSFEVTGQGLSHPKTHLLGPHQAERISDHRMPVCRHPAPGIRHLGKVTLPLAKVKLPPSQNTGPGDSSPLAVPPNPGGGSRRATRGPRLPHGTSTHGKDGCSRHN

Murine KIF18A = biological target: T3, Murine KIF18A (Mus musculus, UniProt Q91WD7); assay: ADP-Glo ATPase assay
T3 sequence (Q91WD7 1-886): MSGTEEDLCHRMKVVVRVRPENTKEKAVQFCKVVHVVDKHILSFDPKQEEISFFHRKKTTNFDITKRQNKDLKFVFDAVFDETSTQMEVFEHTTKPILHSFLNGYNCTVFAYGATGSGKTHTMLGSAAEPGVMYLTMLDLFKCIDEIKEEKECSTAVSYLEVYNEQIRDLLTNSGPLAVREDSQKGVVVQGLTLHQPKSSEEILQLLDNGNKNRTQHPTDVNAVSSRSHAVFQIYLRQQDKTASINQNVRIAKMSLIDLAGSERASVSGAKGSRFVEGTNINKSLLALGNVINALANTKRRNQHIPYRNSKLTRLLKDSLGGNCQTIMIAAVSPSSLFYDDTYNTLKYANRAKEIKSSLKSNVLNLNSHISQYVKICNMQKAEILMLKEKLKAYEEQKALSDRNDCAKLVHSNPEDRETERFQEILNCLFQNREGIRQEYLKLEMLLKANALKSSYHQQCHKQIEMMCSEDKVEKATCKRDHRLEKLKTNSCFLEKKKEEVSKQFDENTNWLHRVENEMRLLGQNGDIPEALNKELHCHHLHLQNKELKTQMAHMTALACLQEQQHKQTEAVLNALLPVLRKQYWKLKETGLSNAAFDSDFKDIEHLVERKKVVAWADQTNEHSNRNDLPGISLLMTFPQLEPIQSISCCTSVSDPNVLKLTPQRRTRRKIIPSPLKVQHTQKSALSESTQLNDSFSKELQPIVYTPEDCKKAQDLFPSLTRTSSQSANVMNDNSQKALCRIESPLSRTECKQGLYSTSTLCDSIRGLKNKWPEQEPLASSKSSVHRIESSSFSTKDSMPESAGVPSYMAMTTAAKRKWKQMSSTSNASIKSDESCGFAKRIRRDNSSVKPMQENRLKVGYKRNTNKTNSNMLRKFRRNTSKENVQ

Row | IC50 (KIF18A) [nM] | IC50 (KIF19) [nM] | IC50 (Murine KIF18A) [nM] | Compound
1 | 2200 | – | – | O=[N+]([O-])c1cc(Cl)ccc1S(=O)(=O)c1ccccc1 [BTB-1]
2 | – | 280 | 8.8 | CC(C)(C)NS(=O)(=O)c1cccc(C(=O)N2CC3(CCC4(CC4)CC3)c3cc(NS(C)(=O)=O)ccc32)c1 [compound 11, N-(tert-butyl)-3-(5”-(methylsulfonamido)dispiro[cyclopropane-1,1’-cyclohexane-4’,3”-indoline]-1”-carbonyl)benzenesulfonamide]
